Eight compounds from US7691883B2, “Cinnamoyl compound and use of the same” (Sumitomo Chemical Company, Limited, priority 2003, dated 2010) can be followed below.

A short description of test [1]: Ability of a test compound to regulate transcription of a Type I collagen gene using the expression level of a reporter gene (COL-Luc luciferase) as an index. As to conditions: final concentration 1 μM; normal human fetal skin fibroblast transfected with COL-Luc; TGF-β, 40 hours; read-out: inhibition percentage (inhibitory effect on the ability of TGF-β to promote transcription of a Type I collagen gene). Type of test: cell-based. As for the experimental part: 1×10^8 cells of a normal human fetal skin fibroblast (Clontech, catalogue No. CC-2509) were cultured at 37° C. overnight under 5% CO2 atmosphere. After the cultured cells were washed with a sodium phosphate buffer (hereinafter, referred to as PBS) twice, 3 ml of PBS was added thereto and the cells were scraped away the wall of a vessel using a cell scraper (Nalgen, catalogue No. 179693). The scraped cells were collected by centrifugation (1,500 rpm, 4° C., 15 min), and these were suspended in 20 ml of PBS and centrifuged again. To the resulting precipitates were added 11 ml of Solution 2 and 4.8 μl of pronase of DNA Extraction Kit (Stratagene, catalogue No. 200600). After shaken at 60° C. for 1 hour, the resulting mixture was allowed to stand in ice for 10 minutes. Then, 4 ml of Solution 3 of the kit was added to the mixture. After mixed, the mixture was allowed to stand in ice for 5 minutes and then centrifuged (3,000 rpm, 4° C., 15 min) to recover a supernatant. To the recovered supernatant was added 2 μl of RNase per 1 ml of the supernatant and the mixture was allowed to stand at 37° C. for 15 minutes. To the mixture was added 2-fold volume of ethanol. After mixed, a white thread-like substance (genomic DNA) appeared and the substance was recovered. The recovered genomic DNA washed with 70% ethanol and then air-dried. The air-dried genomic DNA was dissolved in 500 μl of 10 mM Tris-HCl, 1 mM EDTA (pH 8.0) (hereinafter, referred to as TE).
The resulting genomic DNA solution (the amount equivalent to 1 μg of genomic DNA), each 1 μl (10 pmol/μl) of an oligonucleotide consisting of the nucleotide sequence represented by SEQ ID No:1 and an oligonucleotide consisting of the nucleotide sequence represented by SEQ ID No:2, 29 μL of distilled water, 5 μl of the buffer attached to TaKaRa LA Taq (TAKARA SHUZO, catalogue No. RR002A), 5 μL of a Mg^2+ solution, 5 μL of a dNTP mixture and 0.5 μl of TaKaRa LA Taq (TAKARA SHUZO, catalogue No. RR002A) were mixed. After the resulting mixed solution was incubated at 94° C. for 5 minutes, the mixed solution was subjected to 30 cycles, in which one cycle consists of incubation at 94° C. for 1 minute, at 60° C. for 1 minute and then at 72° C. for 1 minute. The mixed solution was electrophoresed on a 2% agarose gel to recover about 0.5 kb of a DNA. The recovered DNA was treated with phenol/chloroform and then precipitated with ethanol to recover the DNA. The resulting DNA was dissolved in ultrapure water. To this solution were added 2.5 μl of NheI and 2.5 μl of HindIII, and then incubated at 37° C. for 3 hours. Then, the solution was electrophoresed on a 2% agarose gel to recover about 3.5 kb of a DNA. The recovered DNA was precipitated with ethanol to recover again the DNA (hereinafter, referred to as the collagen promoter DNA).
On the other hand, the vector pGL3 (Promega, catalogue No. E1751) having the nucleotide sequence encoding firefly luciferase was digested with NheI and HindIII, and then subjected to agarose gel electrophoresis as described above to recover about 5 kb of a DNA. The recovered DNA was precipitated with ethanol to recover the DNA again. To the recovered DNA were added 44 μl of distilled water, 5 μl of Buffer attached to Alkaline Phosphatase (TAKARA SHUZO, catalogue No. 2120A) and 1 μl of Alkaline Phosphatase (TAKARA SHUZO, catalogue No. 2120A). The mixed solution was incubated at 65° C. for 30 minutes. Then, the mixed solution was treated with phenol/chloroform twice, and precipitated with ethanol to recover the DNA (hereinafter referred to as the Luc vector DNA). Then, after about 20 ng of the collagen promoter DNA and about 20 ng of the Luc vector DNA were mixed, the same amount of a DNA Ligation kit Ver2 enzyme solution was added and this was incubated overnight at 16° C. To the mixed solution was added Escherichia coli 5Hdα (TOYOBO, catalogue No. DNA-903), this was allowed to stand in ice for 30 minutes, and then incubated at 42° C. for 45 seconds. […]

The subject of test [2] is mRNA of Type I collagen gene in renal glomerulus. The experiment in a line: Improvement of chronic renal failure: mRNA of Type I collagen gene in renal glomerulus of anti-Thy-1 antibody rats. The following applies: for ability to improve chronic renal failure: anti-Thy-1 antibody rats, 15 mg/kg/day orally for 7 days; for mRNA of collagen gene: male Wistar rats given anti-Thy-1 antibody (IgG) i.v., compound orally 15 mg/kg/day for 7 days, Type I collagen amount/GAPDH amount, renal cortex, control group 5.6, normal group 1.7. In kind it is in vivo, rat. Further details: key to mRNA of collagen gene: Type I collagen amount / GAPDH amount. As for the experimental part:
IgG was purified from an ascites-lyophilized powder (CEDARLANE, lot No. 05122) containing an anti-rat CD90 (Thy1.1) monoclonal antibody using MAbTrap kit (Amersham Biosciences, catalogue No. 17-1128-01).
6 ml of a binding buffer was added to 3 ml of ascites to sufficiently recover it, and this was passed through a 0.22 μm filter. The resulting solution was applied to a pre-bufferized column, and the column was then washed with 10 ml of a binding buffer. Thereafter, the column was eluted with 5 ml of an elution buffer. From washing, each 1 ml was fractionated, and the protein concentration of each fraction was measured using bovine serum albumin as a standard. A single peak was confirmed from an elution pattern, and an IgG fraction was dialyzed against a physiological saline overnight at 4° C. The protein concentration of the resulting anti-Thy-1 antibody (IgG) was calculated.
The present compounds represented by the compound numbers (1a), (4a), (9a), (14a), (21a), (33a), (19b) or (21d) (hereinafter, referred to as the present compound (1a), (4a), (9a), (14a), (21a), (33a), (19b) or the present compound (21d), respectively) and a corn oil which is a medium were weighed. These were mixed using a mortar and a pestle to prepare a […]. Using four 7-week old male Wistar rats [Nippon Charles River] per group, 60 μg/ml of the anti-Thy-1 antibody (IgG) or a physiological saline was intravenously injected via a tail vein at 5 ml/kg. Immediately after administration of the anti-Thy-1 antibody (IgG) or a physiological saline, the present compound or a corn oil was repeatedly orally administered for 7 days at 5 ml/kg. A dose of the present compound was 15 mg/kg/day.
On the next day of final administration, a rat reared as described in the above (2) was slaughtered by collection of whole blood, and kidneys were isolated. A whole RNA was separated from the cortex of the isolated kidney using RNeasy Mini Kit (QIAGEN, catalogue No. 74106). To 5 μl (50 ng) of the separated whole RNA were added 1 μl of 20 μM oligo dT and 4 μl of RNase-free distilled water. After the mixture was incubated at 65° C. for 5 minutes, it was immediately ice-cooled. To 10 μl of the solution were added 4 μl of 5× buffer, 2.4 μl of MgCl2, 1 μl of 10 mM dNTP, 1 μl of RNasin, 1 μl of Improm II and 0.6 μl of RNase-free distilled water (all available from Promega), and a reverse transcription reaction was performed under the condition of at 25° C. for 5 minutes, at 42° C. for 1 hour, and at 70° C. for 15 minutes.
Into 5 μl of the reverse transcription reaction solution were mixed each 2 μl of each 1.25 pmol/μl of primers represented by SEQ ID NOS: 3 and 4, 1.25 μl of a probe (FAM-ctcgccttca tgcgcctgct agc-TAMRA) for detecting DNA of a Type I collagen gene represented by SEQ ID No:5, each 0.25 μl of Rodent GAPDH primers, 0.25 μl of a Rodent GAPDH probe, 12.5 μl of TaqMan Universal PCR Master Mix (all available from Applied Biosystem) and 1.5 μl of sterilized water in a well of Optical 96-Well Reaction Plate (Applied Biosystem, catalogue No. N801-0560). As a standard, in place of 5 μl of the reverse transcription reaction solution, each 5 μl of 500, 250, 125, 62.5, 31.25, 15.625 ng/μl rat renal cortex cDNA which had been prepared in advance was used. Thereafter, using Gene Amp 7900 (Applied Biosystem), PCR was performed under the condition of at 50° C. for 5 minutes, and 40 cycles in which one cycle is at 95° C. for 15 seconds and at 60° C. for 1 minute. For quantization, a standard straight line was made, the Type I collagen and GAPDH amounts of each sample were calculated, and the transcription amount was calculated according to the following equation: Type I collagen transcription amount=Type I collagen amount/GAPDH amount
For statistical treatment of the resulting result, F-test of a variance ratio was performed between two groups of the anti-Thy-1 antibody and corn oil-administered groups and other each group. […]

Bounds are passed on as bounds.

For `Cc1cc(O)c(C(=O)C=Cc2cccc(C=CC#N)c2)c(=O)o1` [(1a), 4-hydroxy-3-[3-[3-(2-cyanoethenyl)phenyl]-1-oxo-2-propenyl]-6-methyl-2H-pyran-2-one], the inhibition at 1 µM in test [1] was not below 70%. Also, in test [2], the “ability to improve chronic renal failure” value was “have the ability to improve chronic renal failure” and the “mRNA of collagen gene” value was determined as 1.9.

With `COC(=O)CNC(=O)c1cccc(C=CC(=O)c2c(O)cc(C)oc2=O)c1` [(33a), 4-hydroxy-3-[3-[3-[[(methoxycarbonylmethyl)amino]carbonyl]phenyl]-1-oxo-2-propenyl]-6-methyl-2H-pyran-2-one], the inhibition at 1 µM in test [1] is not below 70%. Besides, in test [2], the “ability to improve chronic renal failure” value is “have the ability to improve chronic renal failure” and the “mRNA of collagen gene” value was found to be 3.3.

With `COC(=O)CNC(=O)c1cccc(C=CC(=O)c2c(N3CCOCC3)cc(C)oc2=O)c1` [(19b), 4-morpholino-3-[3-[3-[[(methoxycarbonylmethyl)amino]carbonyl]phenyl]-1-oxo-2-propenyl]-6-methyl-2H-pyran-2-one], the inhibition at 1 µM in test [1] was not below 70%. In test [2], the “ability to improve chronic renal failure” value is “have the ability to improve chronic renal failure” and the “mRNA of collagen gene” value is reported as 2.9.

With `C#CCOc1ccc(C=CC(=O)c2c(O)cc(C)oc2=O)cc1` [(9a), 4-hydroxy-3-[3-(4-propargyloxyphenyl)-1-oxo-2-propenyl]-6-methyl-2H-pyran-2-one], in test [2], the “ability to improve chronic renal failure” value is reported as “have the ability to improve chronic renal failure” and the “mRNA of collagen gene” value came to 3.4.

As for `COCC(=O)Nc1cccc(C=CC(=O)c2c(O)c3ccccc3oc2=O)c1` [(21d), 4-hydroxy-3-[3-[3-(methoxyacetylamino)phenyl]-1-oxo-2-propenyl]-2H-1-benzopyran-2-one], the inhibition at 1 µM in test [1] was not below 70%. In test [2], the “ability to improve chronic renal failure” value is recorded as “have the ability to improve chronic renal failure” and the “mRNA of collagen gene” value was found to be 2.2.

Regarding `C=CCOc1cccc(C=CC(=O)c2c(O)cc(C)oc2=O)c1` [(4a), 4-hydroxy-3-[3-(3-allyloxyphenyl)-1-oxo-2-propenyl]-6-methyl-2H-pyran-2-one], in test [1], the inhibition at 1 µM is not below 70%. Moreover, in test [2], the “ability to improve chronic renal failure” value is “have the ability to improve chronic renal failure” and the “mRNA of collagen gene” value was determined as 3.2.

Turning to `COCC(=O)Nc1cccc(C=CC(=O)c2c(O)cc(C)oc2=O)c1` [(21a), 4-hydroxy-3-[3-[3-(methoxyacetylamino)phenyl]-1-oxo-2-propenyl]-6-methyl-2H-pyran-2-one], the inhibition at 1 µM in test [1] was not below 70%. For the same compound, in test [2], the “ability to improve chronic renal failure” value is on record as “have the ability to improve chronic renal failure” and the “mRNA of collagen gene” value was 1.7.

Turning to `Cc1cc(O)c(C(=O)C=Cc2cccc(OCC#N)c2)c(=O)o1` [(14a), 4-hydroxy-3-[3-[3-(cyanomethoxy)phenyl]-1-oxo-2-propenyl]-6-methyl-2H-pyran-2-one], the inhibition at 1 µM in test [1] was not below 70%. For the same compound, in test [2], the “ability to improve chronic renal failure” value is “have the ability to improve chronic renal failure” and the “mRNA of collagen gene” value turned out to be 2.2.
